Where two headings read alike, the source gives them in different places. Positions of bridges follow the written chain, without caps; N, C: chain ends. Non-standard residues stand in square brackets, D forms with d. Residues, ends and D or L forms follow the SMILES beside them. Phe(3,4,5-F3) = N[C@@H](Cc1cc(F)c(F)c(F)c1)C(=O)O; Phe(3,4-(OMe)2) = COc1ccc(C[C@H](N)C(=O)O)cc1OC; Phe(4-CF3) = N[C@@H](Cc1ccc(C(F)(F)F)cc1)C(=O)O; Trp(1-Me) = Cn1cc(C[C@H](N)C(=O)O)c2ccccc21; Phe(3-Me) = Cc1cccc(C[C@H](N)C(=O)O)c1; 1Nal = N[C@@H](Cc1cccc2ccccc12)C(=O)O; 2Nal = N[C@@H](Cc1ccc2ccccc2c1)C(=O)O; Cit = NC(=O)NCCC[C@H](N)C(=O)O; Ahp(2) = CCCCC[C@H](N)C(=O)O; NMeNle = CCCC[C@H](NC)C(=O)O; NHexGly = CCCCCCNCC(=O)O; Nle = CCCC[C@H](N)C(=O)O; Orn = NCCC[C@H](N)C(=O)O
Target: T1, mouse VISTA (mVISTA) (Mus musculus, UniProt Q9D659)
T1 construct: expressed in transfected cells; host or cells: Human embryonic kidney 293T cells
T1 sequence (Q9D659 33-308): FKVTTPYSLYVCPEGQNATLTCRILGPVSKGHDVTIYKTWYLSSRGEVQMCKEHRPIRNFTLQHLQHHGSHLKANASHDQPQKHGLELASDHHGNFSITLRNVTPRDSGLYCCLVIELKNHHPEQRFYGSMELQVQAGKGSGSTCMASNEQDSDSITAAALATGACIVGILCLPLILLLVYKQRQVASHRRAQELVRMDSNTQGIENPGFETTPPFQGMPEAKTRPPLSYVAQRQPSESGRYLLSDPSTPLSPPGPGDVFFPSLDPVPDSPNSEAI
Assay: Cell-Based Binding High-Content Assay For mVISTA (HC CBA mVISTA)
Conditions: read-out: HC CBA mVISTA IC50
Procedure, shortened: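 mVISTA-293T, 4,000 cells/well; cpd ± washout step; biotin-peptide 2 nM final, 30 min RT; SA-Alexa 647 30 min; formaldehyde/Hoechst fix; HCS imaging; 4PL IC50.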

[1] = the 19th table, scaffold drawing 22
[2] = the 20th table, scaffold drawing 23

| IC50 [1] | IC50 [2] | Compound |
| --- | --- | --- |
|  | 19.9 nM | CCCCCCN1CC(=O)N[C@@H](Cc2ccc(O)cc2)C(=O)N[C@@H](CCCC)C(=O)N[C@@H](CC(N)=O)C(=O)N[C@@H](CCCNC(=N)N)C(=O)N[C@@H](CC(C)C)C(=O)N[C@@H](CCCCC)C(=O)N2CCC[C@H]2C(=O)N[C@@H](C(C)C)C(=O)N[C@@H](CO)C(=O)N[C@H](C(=O)NCC(=O)O)CSCC(=O)N[C@@H](Cc2cccc3ccccc23)C(=O)N[C@@H](Cc2ccc(O)cc2)C(=O)N[C@@H](CC(=O)O)C1=O [compound 1452] ({CH2CO}-[1Nal]YD[NHexGly]Y[Nle]NRL[Ahp(2)]PVSCG-OH; thioether N-14) |
|  | 17 nM | CCCCCCN1CC(=O)N[C@@H](Cc2ccc(O)cc2)C(=O)N[C@@H](CCCC)C(=O)N[C@@H](CC(N)=O)C(=O)N[C@@H](CCCNC(=N)N)C(=O)N[C@@H](CC(C)C)C(=O)N[C@@H](CCCCC)C(=O)N2CCC[C@H]2C(=O)N[C@@H](C(C)C)C(=O)N[C@@H](CC(=O)O)C(=O)N[C@H](C(=O)NCC(=O)O)CSCC(=O)N[C@@H](Cc2cc(F)c(F)c(F)c2)C(=O)N[C@@H](Cc2c[nH]c3ccccc23)C(=O)N[C@@H](CC(=O)O)C1=O [compound 1456] ({CH2CO}-[Phe(3,4,5-F3)]WD[NHexGly]Y[Nle]NRL[Ahp(2)]PVDCG-OH; thioether N-14) |
|  | 23.4 nM | CCCCCCN1CC(=O)N[C@@H](Cc2ccc(O)cc2)C(=O)N[C@@H](CCCC)C(=O)N[C@@H](CC(N)=O)C(=O)N[C@@H](CCCNC(=N)N)C(=O)N[C@@H](CC(C)C)C(=O)N[C@@H](CCCCC)C(=O)N2CCC[C@H]2C(=O)N[C@@H](C(C)C)C(=O)N[C@@H](CC(=O)O)C(=O)N[C@H](C(=O)NCC(=O)O)CSCC(=O)N[C@@H](Cc2ccc(C(F)(F)F)cc2)C(=O)N[C@@H](Cc2c[nH]c3ccccc23)C(=O)N[C@@H](CC(=O)O)C1=O [compound 1459] ({CH2CO}-[Phe(4-CF3)]WD[NHexGly]Y[Nle]NRL[Ahp(2)]PVDCG-OH; thioether N-14) |
|  | 8.7 nM | CCCCCCN1CC(=O)N[C@@H](Cc2ccc(O)cc2)C(=O)N[C@@H](CC(C)C)C(=O)N[C@@H](CC(N)=O)C(=O)N[C@@H](CCCNC(=N)N)C(=O)N[C@@H](CC(C)C)C(=O)N[C@@H](CCCCC)C(=O)N2CCC[C@H]2C(=O)N[C@@H](C(C)C)C(=O)N[C@@H](C(C)C)C(=O)N[C@H](C(=O)NCC(=O)O)CSCC(=O)N[C@@H](Cc2ccc(C(F)(F)F)cc2)C(=O)N[C@@H](Cc2c[nH]c3ccccc23)C(=O)N[C@@H](CC(=O)O)C1=O [compound 1460] ({CH2CO}-[Phe(4-CF3)]WD[NHexGly]YLNRL[Ahp(2)]PVVCG-OH; thioether N-14) |
|  | 5 nM | CCCCCCN1CC(=O)N[C@@H](Cc2ccc(O)cc2)C(=O)N[C@@H](CCCC)C(=O)N[C@@H](CC(N)=O)C(=O)N[C@@H](CCCNC(=N)N)C(=O)N[C@@H](CC(C)C)C(=O)N[C@@H](CCCCC)C(=O)N2CCC[C@H]2C(=O)N[C@@H](C(C)C)C(=O)N[C@@H](CC(=O)O)C(=O)N[C@H](C(=O)NCC(=O)O)CSCC(=O)N[C@@H](Cc2ccc(C(F)(F)F)cc2)C(=O)N[C@@H](Cc2ccc(O)cc2)C(=O)N[C@@H](CC(=O)O)C1=O [compound 1461] ({CH2CO}-[Phe(4-CF3)]YD[NHexGly]Y[Nle]NRL[Ahp(2)]PVDCG-OH; thioether N-14) |

Continued, molecule first:

| Compound | IC50 [1] | IC50 [2] |
| --- | --- | --- |
| CCCCCCN1CC(=O)N[C@@H](Cc2ccc(O)cc2)C(=O)N[C@@H](CCCC)C(=O)N[C@@H](CC(=O)O)C(=O)N[C@@H](CCCN)C(=O)N(C)[C@@H](CCCC)C(=O)N[C@@H](CCCCC)C(=O)N2CCC[C@H]2C(=O)N[C@@H](C(C)C)C(=O)N[C@@H](CC(=O)O)C(=O)N[C@H](C(=O)N[C@@H](CO)C(N)=O)CSCC(=O)N[C@@H](Cc2cccc(C)c2)C(=O)N[C@@H](Cc2c[nH]c3ccccc23)C(=O)N[C@@H](CC(=O)O)C1=O [compound 1446] ({CH2CO}-[Phe(3-Me)]WD[NHexGly]Y[Nle]D[Orn][NMeNle][Ahp(2)]PVDCS-NH2; thioether N-14) | 9.1 nM |  |
| CCCCCCN1CC(=O)N[C@@H](Cc2ccc(O)cc2)C(=O)N[C@@H](CCCC)C(=O)N[C@@H](CC(=O)O)C(=O)N[C@@H](CCCNC(N)=O)C(=O)N(C)[C@@H](CCCC)C(=O)N[C@@H](CCCCC)C(=O)N2CCC[C@H]2C(=O)N[C@@H](C(C)C)C(=O)N[C@@H](CC(=O)O)C(=O)N[C@H](C(=O)N[C@@H](CC(=O)O)C(N)=O)CSCC(=O)N[C@@H](Cc2cccc(C)c2)C(=O)N[C@@H](Cc2ccc(O)cc2)C(=O)N[C@@H](CC(=O)O)C1=O [compound 1447] ({CH2CO}-[Phe(3-Me)]YD[NHexGly]Y[Nle]D[Cit][NMeNle][Ahp(2)]PVDCD-NH2; thioether N-14) | 15.3 nM |  |
| CCCCCCN1CC(=O)N[C@@H](Cc2ccc(O)cc2)C(=O)N[C@@H](CCCC)C(=O)N[C@@H](CC(=O)O)C(=O)N[C@@H](CCCNC(=N)N)C(=O)N(C)[C@@H](CCCC)C(=O)N[C@@H](CCCCC)C(=O)N2CCC[C@H]2C(=O)N[C@@H](C(C)C)C(=O)N[C@@H](CC(=O)O)C(=O)N[C@H](C(=O)N[C@@H](CC(=O)O)C(N)=O)CSCC(=O)N[C@@H](Cc2cccc(C)c2)C(=O)N[C@@H](Cc2ccc(O)cc2)C(=O)N[C@@H](CC(=O)O)C1=O [compound 1448] ({CH2CO}-[Phe(3-Me)]YD[NHexGly]Y[Nle]DR[NMeNle][Ahp(2)]PVDCD-NH2; thioether N-14) | 14.2 nM |  |
| CCCCCCN1CC(=O)N[C@@H](Cc2ccc(O)cc2)C(=O)N[C@@H](CCCC)C(=O)N[C@@H](CC(=O)O)C(=O)N[C@@H](CCCN)C(=O)N(C)[C@@H](CCCC)C(=O)N[C@@H](CCCCC)C(=O)N2CCC[C@H]2C(=O)N[C@@H](C(C)C)C(=O)N[C@@H](CC(=O)O)C(=O)N[C@H](C(=O)N[C@@H](CC(=O)O)C(N)=O)CSCC(=O)N[C@@H](Cc2cccc(C)c2)C(=O)N[C@@H](Cc2ccc(O)cc2)C(=O)N[C@@H](CC(=O)O)C1=O [compound 1449] ({CH2CO}-[Phe(3-Me)]YD[NHexGly]Y[Nle]D[Orn][NMeNle][Ahp(2)]PVDCD-NH2; thioether N-14) | 10.8 nM |  |
| CCCCCCN1CC(=O)N[C@@H](Cc2ccc(O)cc2)C(=O)N[C@@H](CCCC)C(=O)N[C@@H](CC(N)=O)C(=O)N[C@@H](CCCNC(=N)N)C(=O)N(C)[C@@H](CCCC)C(=O)N[C@@H](CCCCC)C(=O)N2CCC[C@H]2C(=O)N[C@@H](C(C)C)C(=O)N[C@@H](CC(=O)O)C(=O)N[C@H](C(=O)NCC(=O)O)CSCC(=O)N[C@@H](Cc2cccc(C)c2)C(=O)N[C@@H](Cc2ccc(O)cc2)C(=O)N[C@@H](CC(=O)O)C1=O [compound 1450] ({CH2CO}-[Phe(3-Me)]YD[NHexGly]Y[Nle]NR[NMeNle][Ahp(2)]PVDCG-OH; thioether N-14) | 7 nM |  |
| CCCCCCN1CC(=O)N[C@@H](Cc2ccc(O)cc2)C(=O)N[C@@H](CCCC)C(=O)N[C@@H](CC(=O)O)C(=O)N[C@@H](CCCNC(=N)N)C(=O)N(C)[C@@H](CCCC)C(=O)N[C@@H](CCCCC)C(=O)N2CCC[C@H]2C(=O)N[C@@H](C(C)C)C(=O)N[C@@H](CC(=O)O)C(=O)N[C@H](C(=O)N[C@@H](CO)C(N)=O)CSCC(=O)N[C@@H](Cc2cccc(C)c2)C(=O)N[C@@H](Cc2ccc(O)cc2)C(=O)N[C@@H](CC(=O)O)C1=O [compound 1451] ({CH2CO}-[Phe(3-Me)]YD[NHexGly]Y[Nle]DR[NMeNle][Ahp(2)]PVDCS-NH2; thioether N-14) | 8.6 nM |  |
| CCCCCCN1CC(=O)N[C@@H](Cc2ccc(O)cc2)C(=O)N[C@@H](CCCC)C(=O)N[C@@H](CC(N)=O)C(=O)N[C@@H](CCCNC(=N)N)C(=O)N[C@@H](CC(C)C)C(=O)N[C@@H](CCCCC)C(=O)N2CCC[C@H]2C(=O)N[C@@H](C(C)C)C(=O)N[C@@H](CC(=O)O)C(=O)N[C@H](C(=O)NCC(=O)O)CSCC(=O)N[C@@H](Cc2ccc3ccccc3c2)C(=O)N[C@@H](Cc2cn(C)c3ccccc23)C(=O)N[C@@H](CC(=O)O)C1=O [compound 1454] ({CH2CO}-[2Nal][Trp(1-Me)]D[NHexGly]Y[Nle]NRL[Ahp(2)]PVDCG-OH; thioether N-14) |  | 3.6 nM |
| CCCCCCN1CC(=O)N[C@@H](Cc2ccc(O)cc2)C(=O)N[C@@H](CCCC)C(=O)N[C@@H](CC(N)=O)C(=O)N[C@@H](CCCNC(=N)N)C(=O)N[C@@H](CC(C)C)C(=O)N[C@@H](CCCCC)C(=O)N2CCC[C@H]2C(=O)N[C@@H](C(C)C)C(=O)N[C@@H](CC(=O)O)C(=O)N[C@H](C(=O)NCC(=O)O)CSCC(=O)N[C@@H](Cc2ccccc2)C(=O)N[C@@H](Cc2cn(C)c3ccccc23)C(=O)N[C@@H](CC(=O)O)C1=O [compound 1455] ({CH2CO}-F[Trp(1-Me)]D[NHexGly]Y[Nle]NRL[Ahp(2)]PVDCG-OH; thioether N-14) |  | 3.5 nM |
| CCCCCCN1CC(=O)N[C@@H](Cc2ccc(O)cc2)C(=O)N[C@@H](CCCC)C(=O)N[C@@H](CC(N)=O)C(=O)N[C@@H](CCCNC(=N)N)C(=O)N[C@@H](CC(C)C)C(=O)N[C@@H](CCCCC)C(=O)N2CCC[C@H]2C(=O)N[C@@H](C(C)C)C(=O)N[C@@H](CC(=O)O)C(=O)N[C@H](C(=O)NCC(=O)O)CSCC(=O)N[C@@H](Cc2cc(F)c(F)c(F)c2)C(=O)N[C@@H](Cc2ccc(O)cc2)C(=O)N[C@@H](CC(=O)O)C1=O [compound 1457] ({CH2CO}-[Phe(3,4,5-F3)]YD[NHexGly]Y[Nle]NRL[Ahp(2)]PVDCG-OH; thioether N-14) |  | 11.6 nM |
| CCCCCCN1CC(=O)N[C@@H](Cc2ccc(O)cc2)C(=O)N[C@@H](CCCC)C(=O)NCC(=O)N[C@@H](CCCNC(=N)N)C(=O)N[C@@H](CC(C)C)C(=O)N[C@@H](CCCCC)C(=O)N2CCC[C@H]2C(=O)N[C@@H](C(C)C)C(=O)N[C@@H](CC(=O)O)C(=O)N[C@H](C(=O)NCC(=O)O)CSCC(=O)N[C@@H](Cc2ccc(OC)c(OC)c2)C(=O)N[C@@H](Cc2ccc(O)cc2)C(=O)N[C@@H](CC(=O)O)C1=O [compound 1458] ({CH2CO}-[Phe(3,4-(OMe)2)]YD[NHexGly]Y[Nle]GRL[Ahp(2)]PVDCG-OH; thioether N-14) |  | 33.8 nM |

Source: patent US20240218022A1, “ANTI-VISTA MACROCYCLIC PEPTIDES AND COMPOSITIONS” (BRISTOL-MYERS SQUIBB COMPANY, priority 2022, published 2024)
